Experimental data: the CheMixHub viscosity set
“And” between values parts separate entries of the source, which are not always exact repeats. Equal entries are not always repeated. ± gives the uncertainty stated by the source.

COC(=O)c1ccccc1
viscosity (293.15 K, 101.33 kPa): 1.879 ± 0.015 mPa·s and 2.036 ± 0.12 mPa·s
viscosity (298.15 K, 101 kPa): 1.823 ± 0.057 mPa·s and 1.825 ± 0.15 mPa·s
viscosity (298.15 K, 101.3 kPa): 1.918 ± 0.024 mPa·s
viscosity (298.15 K, 101.33 kPa): 1.836 ± 0.11 mPa·s and 1.825 ± 0.023 mPa·s and 1.81 ± 0.022 mPa·s
viscosity (303.15 K, 101 kPa): 1.656 ± 0.14 mPa·s and 1.583 ± 0.018 mPa·s
viscosity (303.15 K, 101.3 kPa): 1.778 ± 0.022 mPa·s
viscosity (303.15 K, 101.33 kPa): 1.523 ± 0.012 mPa·s and 1.656 ± 0.021 mPa·s and 1.638 ± 0.02 mPa·s
viscosity (308.15 K, 100 kPa): 1.517 ± 0.062 mPa·s
viscosity (308.15 K, 101 kPa): 1.501 ± 0.037 mPa·s and 1.504 ± 0.047 mPa·s
viscosity (308.15 K, 101.3 kPa): 1.663 ± 0.021 mPa·s
viscosity (308.15 K, 101.33 kPa): 1.521 ± 0.092 mPa·s and 1.491 ± 0.018 mPa·s
viscosity (313.15 K, 100 kPa): 1.373 ± 0.056 mPa·s
viscosity (313.15 K, 101 kPa): 1.359 ± 0.014 mPa·s and 1.371 ± 0.034 mPa·s
viscosity (313.15 K, 101.3 kPa): 1.402 ± 0.018 mPa·s
viscosity (313.15 K, 101.33 kPa): 1.238 ± 0.01 mPa·s and 1.398 ± 0.085 mPa·s and 1.365 ± 0.017 mPa·s
viscosity (318.15 K, 101 kPa): 1.282 ± 0.032 mPa·s and 1.27 ± 0.04 mPa·s
viscosity (318.15 K, 101.33 kPa): 1.253 ± 0.016 mPa·s
viscosity (323.15 K, 101 kPa): 1.222 ± 0.03 mPa·s
viscosity (323.15 K, 101.33 kPa): 1.016 ± 0.009 mPa·s

CCCCNCCO
viscosity (293.15 K, 101.33 kPa): 19.67 ± 0.42 mPa·s
viscosity (298.15 K, 101.33 kPa): 15.39 ± 0.33 mPa·s
viscosity (303.15 K, 101.33 kPa): 12.23 ± 0.26 mPa·s
viscosity (308.15 K, 101.33 kPa): 9.869 ± 0.21 mPa·s
viscosity (313.15 K, 101.33 kPa): 8.07 ± 0.17 mPa·s
viscosity (318.15 K, 101.33 kPa): 6.68 ± 0.14 mPa·s
viscosity (323.15 K, 101.33 kPa): 5.591 ± 0.12 mPa·s

C/C=C/C(=O)OCC
viscosity (293.15 K, 101 kPa): 0.8184 ± 0.0091 mPa·s
viscosity (298.15 K, 101 kPa): 0.7576 ± 0.0085 mPa·s
viscosity (303.15 K, 101 kPa): 0.7053 ± 0.0079 mPa·s
viscosity (313.15 K, 101 kPa): 0.6154 ± 0.007 mPa·s
viscosity (323.15 K, 101 kPa): 0.5471 ± 0.0063 mPa·s

C[N+](C)(C)CCO.O=C([O-])c1ccccn1
viscosity (300 K, 100 kPa): 558.5 ± 54 mPa·s

CC(C)OCCO
viscosity (298.15 K, 101.33 kPa): 2.106 ± 0.026 mPa·s
viscosity (308.15 K, 101.33 kPa): 1.649 ± 0.021 mPa·s
viscosity (318.15 K, 101.33 kPa): 1.315 ± 0.017 mPa·s

CCCCCC(C)C
viscosity (293.15 K, 100 kPa): 0.5 ± 0.007 mPa·s
viscosity (303.15 K, 100 kPa): 0.444 ± 0.007 mPa·s
viscosity (313.15 K, 100 kPa): 0.393 ± 0.006 mPa·s
viscosity (323.15 K, 100 kPa): 0.355 ± 0.006 mPa·s

CCCCCC[N+]1(C)CCCC1.O=S(=O)([N-]S(=O)(=O)C(F)(F)F)C(F)(F)F
viscosity (293.15 K, 100 kPa): 136.2 ± 3.8 mPa·s
viscosity (295.2 K, 101.3 kPa): 119.8 ± 17 mPa·s
viscosity (298.15 K, 100 kPa): 102.8 ± 2.5 mPa·s
viscosity (300.2 K, 101.3 kPa): 96.8 ± 11 mPa·s
viscosity (303.15 K, 100 kPa): 79.59 ± 1.8 mPa·s
viscosity (305.2 K, 101.3 kPa): 79.6 ± 6.4 mPa·s
viscosity (308.15 K, 100 kPa): 63.07 ± 1.3 mPa·s
viscosity (310.2 K, 101.3 kPa): 64.8 ± 3.3 mPa·s
viscosity (313.15 K, 100 kPa): 51.01 ± 1.1 mPa·s
viscosity (313.15 K, 101 kPa): 52.7 ± 5.4 mPa·s
viscosity (315.2 K, 101.3 kPa): 54.2 ± 1.9 mPa·s
viscosity (320.2 K, 101.3 kPa): 45.9 ± 2.2 mPa·s
